Results reported in patent publication US10093673B2, “Tetracyclic pyridone compounds as antivirals” (Novartis AG, priority 2016, dated 2018).
pEC50: −log10 of the molar value. Converted amounts (≈) assume the structure as drawn.

Columns and labels:
[1] = test system: HBsAg secretion; test: HBsAg assay (ELISA of secreted HBsAg, HepG2-Clone42 cells); assay type: cell-based, HBV; settings: Hepatitis B virus, read-out: HBsAg EC50, HepG2-Clone42 cells, HBsAg secretion reduced 50% vs DMSO control
Experimental: HepG2-Clone42, a Tet-inducible HBV-expressing cell line with a stably integrated 1.3mer copy of the HBV ayw strain, was generated based on the Tet-inducible HepAD38 cell line with slight modifications. Ladner S K, et al., Antimicrobial Agents and Chemotherapy. 41(8):1715-1720 (1997). HepG2-Clone42 cells were cultured in DMEM/F-12+Glutamax™ (Life Technologies, Carlsbad, Calif., USA), supplemented with 10% fetal bovine serum (Life Technologies), G-418 (Corning, Manassas, Va., USA) at a final concentration of 0.5 mg/mL, and 5 μg/mL Doxycycline (Sigma, St. Louis, Mo., USA) and maintained in 5% CO2 at 37° C.
HepG2-Clone42 cells were seeded in into black clear-bottom 96-well plates at a concentration of 6.0×10^4 cells/well. 24 hours post-seeding, the cells were treated with 200 μl/well of media containing five-fold serial dilutions of compounds in DMSO. DMSO alone was used as the no drug control. The final DMSO concentration in all wells was 0.5%.
The HBsAg ELISA kit (Alpha Diagnostic International, San Antonio, Tex., USE, Catalog #4110) was used to determine the level (semi-quantitative) of secreted HBV sAg.
The HBSAg ELISA assay was performed following the manufacturer's protocol as described.
Step 1. Pipet 100 μL each of compound or DMSO treated samples into HBsAg ELISA plates. Seal plates and incubate at room temp for 60 minutes.
Step 2. Aspirate samples and wash three times with Wash Buffer. Dispense 100μ of antibody-HRP conjugate to each well. Incubate at room temp for 30 minutes.
Step 3. Aspirate samples and wash three times with Wash Buffer. Add 100 μL of TMB Substrate to all wells and incubate 15 minutes at room temp.
Step 4. Dispense 100 μL of Stop Solution to each well. Measure absorbance of ELISA plate at 450 nm.
EC50 values were determined as follows: • 1. Determine the percent of HBsAg secretion inhibition. Calculate the percent inhibition on of HBsAg secretion inhibition using the following equation: 100×(XC−MB)/(MD−MB) • where XC is the absorbance signal from compound-treated well; MB is average absorbance signal (background signal) for column 12 (no cells+HBsAg ELISA sample buffer) and MD is average absorbance signal from DMSO-treated wells. Then calculate EC50 values by non-linear regression using a four parameter curve logistic equation. The curve fit model employed is XLFit Dose Response One Site Model 204: y=(A+((B−A)/(1+(10^((C−x)*D))))) where A is the minimum y value, B is the maximum y value, C is the log EC50 value, and D is the slope factor. High Throughput Solubility Measurement • 1. Transfer 20 ul of 10 mM DMSO stock solution into a 96 deep well plate labeled as […] and 5 ul to another plate labeled as compound standard plate. • 2. Place the buffer plate in a Multi-Tainer MT-4 container (FTS Systems). Freeze dry overnight to remove DMSO. • 3. Add 100 ul of Cl-free PBS (pH 6.8) to the dried compound in the buffer plate and 95 ul of DMSO to the standard plate. • 4. The buffer plate is be sonicated in a water bath for 10 min. • 5. The two plates are then placed onto the VWR orbital shaker to equilibrate for 24 hours at room temperature. • 6. The buffer plate is centrifuged at 4000 rpm for 30 min. • 7. Transfer 10 ul aliquots of supernatant from the buffer plate to a sample plate and dilute 5 fold. • 8. Inject both compound standard and sample into the UPLC/UV/CLND/MS to generate multi detector qualitative and quantitive analytical data. • 9. Data was processed with Xcalibur. CLND equimolar response was used for measuring compound concentration of DMSO solution. UV270 nm or MS relative ratio was used for solubility determination.

[2] = Pharmacokinetics in mice (iv and PO); assay type: in vivo; settings: for Cmax / Tmax / AUC / clearance / bioavailability / Vd: mouse, in vivo; for bioavailability: read-out: Oral BA (% F); for Vd: read-out: Vss
[3] = Pharmacokinetics in rat (iv and PO); assay type: in vivo; settings: for Cmax / Tmax / AUC / clearance / bioavailability / Vd: in vivo; for bioavailability: read-out: Oral BA (% F); for Vd: read-out: Vss
[4] = Pharmacokinetics in dog (iv and PO); assay type: in vivo; settings: for Cmax / Tmax / AUC / clearance / bioavailability / Vd: in vivo; for bioavailability: read-out: Oral BA (% F); for Vd: read-out: Vss
[5] = High throughput solubility measurement in PBS; assay type: physicochemical; settings: Cl-free PBS, aqueous buffer, thermodynamic from solid; PBS (phosphate-buffered saline), pH 6.8, 24 hours at room temperature
From the text: The following table provides data for solubility of compounds of the invention in PBS (phosphate-buffered saline), using a standard solubility screening method.

[6] = biological target: Nav1.5 (Homo sapiens (Human), UniProt Q14524); test: Inhibition of cardiac sodium ion channel Nav1.5; assay type: biochemical

SMILES: COCCCOc1cc2c(cc1OC)-c1c(F)c(=O)c(C(=O)O)cn1[C@H]1[C@@H]2CCC1(C)C [Compound 3.1, (3aS,12bR)-8-fluoro-10-methoxy-11-(3-methoxypropoxy)-3,3-dimethyl-7-oxo-1,2,3,3a,7,12b-hexahydrocyclopenta[c]pyrido[2,1-a]isoquinoline-6-carboxylic acid]
- pEC50 [1]: 9.52
- T1/2term. [2]: 3.8 h
- Cmax ([2]; PO 2.0 mg/kg): 3 µM
- Tmax ([2]; PO 2.0 mg/kg): 0.5 h
- AUC ([2]; PO 2.0 mg/kg, read-out: AUC PO): 9.5 µM·h
- clearance ([2]; iv 1.0 mg/kg): 0.414 L/h/kg
- bioavailability ([2]; iv 1.0 mg/kg, PO 2.0 mg/kg): 87%
- AUC ([2]; iv 1.0 mg/kg, read-out: AUC iv): 5.5 µM·h
- Vd ([2]; iv 1.0 mg/kg): 1 L/kg
- T1/2term. [3]: 9.2 h
- Cmax ([3]; PO 2.0 mg/kg): 6.5 µM
- Tmax ([3]; PO 2.0 mg/kg): 0.5 h
- AUC ([3]; PO 2.0 mg/kg, read-out: AUC PO): 19.6 µM·h
- clearance ([3]; iv 1.0 mg/kg): 0.126 L/h/kg
- bioavailability ([3]; iv 1.0 mg/kg, PO 2.0 mg/kg): 57%
- AUC ([3]; iv 1.0 mg/kg, read-out: AUC iv): 16.6 µM·h
- Vd ([3]; iv 1.0 mg/kg): 0.6 L/kg
- T1/2term. [4]: 7.2 h
- Cmax ([4]; PO 1.0 mg/kg): 6.2 µM
- Tmax ([4]; PO 1.0 mg/kg): 1.5 h
- AUC ([4]; PO 1.0 mg/kg, read-out: AUC PO): 26.7 µM·h
- clearance ([4]; iv 0.5 mg/kg): 0.078 L/h/kg
- bioavailability ([4]; iv 0.5 mg/kg, PO 1.0 mg/kg): 96%
- AUC ([4]; iv 0.5 mg/kg, read-out: AUC iv): 13.3 µM·h
- Vd ([4]; iv 0.5 mg/kg): 0.6 L/kg
- solubility at 24 h [5]: 1600 µM (≈ 713 µg/mL)

SMILES: COCCCOc1cc2c(cc1OC)-c1cc(=O)c(C(=O)O)cn1[C@H]1[C@@H]2OCC1(C)C [Compound 4.1, (3aR,12bR)-10-methoxy-11-(3-methoxypropoxy)-3,3-dimethyl-7-oxo-3,3a,7,12b-tetrahydro-2H-furo[3,2-c]pyrido[2,1-a]isoquinoline-6-carboxylic acid]
- pEC50 [1]: 9.52
- T1/2term. [2]: 1.8 h
- Cmax ([2]; PO 2.0 mg/kg): 1.9 µM
- Tmax ([2]; PO 2.0 mg/kg): 1 h
- AUC ([2]; PO 2.0 mg/kg, read-out: AUC PO): 7.2 µM·h
- clearance ([2]; iv 1.0 mg/kg): 0.762 L/h/kg
- bioavailability ([2]; iv 1.0 mg/kg, PO 2.0 mg/kg): 100%
- AUC ([2]; iv 1.0 mg/kg, read-out: AUC iv): 2.9 µM·h
- Vd ([2]; iv 1.0 mg/kg): 1.5 L/kg
- T1/2term. [3]: 1.2 h
- Cmax ([3]; PO 2.0 mg/kg): 2.6 µM
- Tmax ([3]; PO 2.0 mg/kg): 2 h
- AUC ([3]; PO 2.0 mg/kg, read-out: AUC PO): 10.2 µM·h
- clearance ([3]; iv 1.0 mg/kg): 0.294 L/h/kg
- bioavailability ([3]; iv 1.0 mg/kg, PO 2.0 mg/kg): 65%
- AUC ([3]; iv 1.0 mg/kg, read-out: AUC iv): 8 µM·h
- Vd ([3]; iv 1.0 mg/kg): 0.75 L/kg
- T1/2term. [4]: 12.3 h
- Cmax ([4]; PO 1.0 mg/kg): 3.3 µM
- Tmax ([4]; PO 1.0 mg/kg): 0.8 h
- AUC ([4]; PO 1.0 mg/kg, read-out: AUC PO): 12.8 µM·h
- clearance ([4]; iv 0.5 mg/kg): 0.162 L/h/kg
- bioavailability ([4]; iv 0.5 mg/kg, PO 1.0 mg/kg): 94%
- AUC ([4]; iv 0.5 mg/kg, read-out: AUC iv): 6.2 µM·h
- Vd ([4]; iv 0.5 mg/kg): 1.7 L/kg
- solubility at 24 h [5]: 1600 µM (≈ 687 µg/mL)
- pEC50 [6]: < 3.30
